Results as given in PubChem BioAssay (NCI).
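Abbreviation: GI50, concentration required for 50% inhibition of growth. The concentration for full growth arrest is given as TGI.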

Tests used:
Assay in all cases: NCI anticancer screen, dose series, 384-well format
HCT-116 colon = test system: HCT-116 colon
A549 NSCLC = test system: A549 NSCLC
SF-295 CNS = test system: SF-295 CNS
HOP-92 NSCLC = test system: HOP-92 NSCLC
TK-10 renal = test system: TK-10 renal
OVCAR-4 ovarian = test system: OVCAR-4 ovarian
T-47D breast = test system: T-47D breast
NCI-H226 lung = test system: NCI-H226 lung
HCT-15 colon = test system: HCT-15 colon
UO-31 renal = test system: UO-31 renal
MCF7 breast = test system: MCF7 breast
NCI-H522 lung = test system: NCI-H522 lung
SF-539 CNS = test system: SF-539 CNS
MDA-MB-435 melanoma = test system: MDA-MB-435 melanoma
UACC-257 melanoma = test system: UACC-257 melanoma
CAKI-1 renal = test system: CAKI-1 renal
SN12C renal = test system: SN12C renal
HL-60(TB) leukemia = test system: HL-60(TB) leukemia
NCI-H460 NSCLC = test system: NCI-H460 NSCLC
PC-3 prostate = test system: PC-3 prostate
OVCAR-3 ovarian = test system: OVCAR-3 ovarian
A498 renal = test system: A498 renal
NCI-H322M lung = test system: NCI-H322M lung
IGROV1 ovarian = test system: IGROV1 ovarian
CCRF-CEM leukemia = test system: CCRF-CEM leukemia
HT29 colon = test system: HT29 colon
DU-145 prostate = test system: DU-145 prostate
U251 glioblastoma = test system: U251 glioblastoma
SK-MEL-2 melanoma = test system: SK-MEL-2 melanoma
NCI/ADR-RES ovarian = test system: NCI/ADR-RES ovarian
COLO 205 colon = test system: COLO 205 colon
HCC-2998 colon = test system: HCC-2998 colon
KM12 colon = test system: KM12 colon
SK-OV-3 ovarian = test system: SK-OV-3 ovarian
UACC-62 melanoma = test system: UACC-62 melanoma
MDA-MB-468 breast = test system: MDA-MB-468 breast
NCI-H23 lung = test system: NCI-H23 lung
K-562 leukemia = test system: K-562 leukemia
RPMI-8226 leukemia = test system: RPMI-8226 leukemia
SK-MEL-28 melanoma = test system: SK-MEL-28 melanoma
MALME-3M melanoma = test system: MALME-3M melanoma
SNB-75 CNS = test system: SNB-75 CNS
MDA-MB-231 breast = test system: MDA-MB-231 breast
SF-268 CNS = test system: SF-268 CNS
BT-549 breast = test system: BT-549 breast
LOX IMVI melanoma = test system: LOX IMVI melanoma
EKVX NSCLC = test system: EKVX NSCLC
SW-620 colon = test system: SW-620 colon
HS 578T breast = test system: HS 578T breast
RXF 393 renal = test system: RXF 393 renal
MOLT-4 leukemia = test system: MOLT-4 leukemia
786-0 renal = test system: 786-0 renal
M14 melanoma = test system: M14 melanoma
HOP-62 NSCLC = test system: HOP-62 NSCLC
SR leukemia = test system: SR leukemia
SNB-19 CNS = test system: SNB-19 CNS
OVCAR-5 ovarian = test system: OVCAR-5 ovarian
ACHN renal = test system: ACHN renal
SK-MEL-5 melanoma = test system: SK-MEL-5 melanoma

Question: What does the source list for `Cc1ccc(NS(=O)(=O)c2cccc(C#N)c2)c2[nH]cc(C#N)c12`?
Answer: GI50 (HCT-116 colon): 0.246 µM; TGI (HCT-116 colon): > 100 µM; GI50 (A549 NSCLC): 15.1 µM; TGI (A549 NSCLC): > 100 µM; GI50 (SF-295 CNS): 7.23 µM; TGI (SF-295 CNS): 42.1 µM; GI50 (HOP-92 NSCLC): 19.9 µM; TGI (HOP-92 NSCLC): 54.6 µM; GI50 (TK-10 renal): 5.02 µM; TGI (TK-10 renal): > 100 µM; GI50 (OVCAR-4 ovarian): 18.2 µM; TGI (OVCAR-4 ovarian): > 100 µM; GI50 (T-47D breast): 23.1 µM; TGI (T-47D breast): 79.2 µM; GI50 (NCI-H226 lung): 12.4 µM; TGI (NCI-H226 lung): 70.6 µM; GI50 (HCT-15 colon): 10.3 µM; TGI (HCT-15 colon): > 100 µM; GI50 (UO-31 renal): 17.8 µM; TGI (UO-31 renal): 53.9 µM; GI50 (MCF7 breast): 11 µM; TGI (MCF7 breast): > 100 µM; GI50 (NCI-H522 lung): 0.292 µM; TGI (NCI-H522 lung): 15.3 µM; GI50 (SF-539 CNS): 37.5 µM; TGI (SF-539 CNS): > 100 µM; GI50 (MDA-MB-435 melanoma): 10.6 µM; TGI (MDA-MB-435 melanoma): 44.5 µM; GI50 (UACC-257 melanoma): 48.6 µM; TGI (UACC-257 melanoma): > 100 µM; GI50 (CAKI-1 renal): 18 µM; TGI (CAKI-1 renal): > 100 µM; GI50 (SN12C renal): 27.7 µM; TGI (SN12C renal): > 100 µM; GI50 (HL-60(TB) leukemia): 12 µM; TGI (HL-60(TB) leukemia): 26 µM; GI50 (NCI-H460 NSCLC): 17.6 µM; TGI (NCI-H460 NSCLC): > 100 µM; GI50 (PC-3 prostate): 1.44 µM; TGI (PC-3 prostate): > 100 µM; GI50 (OVCAR-3 ovarian): 22.2 µM; TGI (OVCAR-3 ovarian): 87.6 µM; GI50 (A498 renal): 19.7 µM; TGI (A498 renal): > 100 µM; GI50 (NCI-H322M lung): 39.4 µM; TGI (NCI-H322M lung): > 100 µM; GI50 (IGROV1 ovarian): 0.247 µM; TGI (IGROV1 ovarian): > 100 µM; GI50 (CCRF-CEM leukemia): 15.1 µM; TGI (CCRF-CEM leukemia): 43.3 µM; GI50 (HT29 colon): 47.2 µM; TGI (HT29 colon): > 100 µM; GI50 (DU-145 prostate): 4.29 µM; TGI (DU-145 prostate): > 100 µM; GI50 (U251 glioblastoma): 16.9 µM; TGI (U251 glioblastoma): > 100 µM; GI50 (SK-MEL-2 melanoma): 33.3 µM; TGI (SK-MEL-2 melanoma): 60 µM; GI50 (NCI/ADR-RES ovarian): 1.24 µM; TGI (NCI/ADR-RES ovarian): > 100 µM; GI50 (COLO 205 colon): 10.5 µM; TGI (COLO 205 colon): > 100 µM; GI50 (HCC-2998 colon): 24 µM; TGI (HCC-2998 colon): > 100 µM; GI50 (KM12 colon): 27.1 µM; TGI (KM12 colon): > 100 µM; GI50 (SK-OV-3 ovarian): 6.53 µM; TGI (SK-OV-3 ovarian): > 100 µM; GI50 (UACC-62 melanoma): 0.777 µM; TGI (UACC-62 melanoma): 28 µM; GI50 (MDA-MB-468 breast): 0.165 µM; TGI (MDA-MB-468 breast): 0.629 µM; GI50 (NCI-H23 lung): 20 µM; TGI (NCI-H23 lung): 43.9 µM; GI50 (K-562 leukemia): 0.525 µM; TGI (K-562 leukemia): > 100 µM; GI50 (RPMI-8226 leukemia): 14.5 µM; TGI (RPMI-8226 leukemia): 47.7 µM; GI50 (SK-MEL-28 melanoma): 32.9 µM; TGI (SK-MEL-28 melanoma): 95.9 µM; GI50 (MALME-3M melanoma): 61.7 µM; TGI (MALME-3M melanoma): > 100 µM; GI50 (SNB-75 CNS): 29.9 µM; TGI (SNB-75 CNS): > 100 µM; GI50 (MDA-MB-231 breast): 14.7 µM; TGI (MDA-MB-231 breast): > 100 µM; GI50 (SF-268 CNS): 37.4 µM; TGI (SF-268 CNS): > 100 µM; GI50 (BT-549 breast): 24.9 µM; TGI (BT-549 breast): 57.6 µM; GI50 (LOX IMVI melanoma): 32.1 µM; TGI (LOX IMVI melanoma): > 100 µM; GI50 (EKVX NSCLC): 28.7 µM; TGI (EKVX NSCLC): 83.9 µM; GI50 (SW-620 colon): 14.7 µM; TGI (SW-620 colon): > 100 µM; GI50 (HS 578T breast): 16.2 µM; TGI (HS 578T breast): 65.6 µM; GI50 (RXF 393 renal): 15.6 µM; TGI (RXF 393 renal): 52.7 µM; GI50 (MOLT-4 leukemia): 0.66 µM; TGI (MOLT-4 leukemia): 13.6 µM; GI50 ([…]-0 renal): 11.7 µM; TGI (786-0 renal): > 100 µM; GI50 (M14 melanoma): 26.5 µM; TGI (M14 melanoma): > 100 µM; GI50 (HOP-62 NSCLC): 12.2 µM; TGI (HOP-62 NSCLC): > 100 µM; GI50 (SR leukemia): 0.155 µM; TGI (SR leukemia): 0.799 µM; GI50 (SNB-19 CNS): 20.2 µM; TGI (SNB-19 CNS): > 100 µM; GI50 (OVCAR-5 ovarian): 31.1 µM; TGI (OVCAR-5 ovarian): > 100 µM; GI50 (ACHN renal): 10.4 µM; TGI (ACHN renal): > 100 µM; GI50 (SK-MEL-5 melanoma): 15.7 µM; TGI (SK-MEL-5 melanoma): 38 µM
